Broadly, the inhibition is the share of the control response that was lost under treatment.

This note sets out measurements from ChEMBL document CHEMBL4765389, “Antimicrobial and anti-inflammatory activities of short dodecapeptides derived from duck cathelicidin: Plausible mechanism of bactericidal action and endotoxin neutralization” (Eur J Med Chem, 2020).

Activity calls are given as the source filed them. The rule behind the calls is not given here. Bounds are passed on as bounds.

Data set [1] deals with Escherichia coli. Description: Bacteriostatic activity against Escherichia coli KCTC 1682 assessed as reduction in colony forming unit at 0.5 times MIC measured for 24 hrs by time kill assay. The class given is functional.
For data set [2], the system named is RAW264.7. In words: Antiinflammatory activity against mouse RAW264.7 cells assessed as reduction in LPS-induced TNFalpha level at 10 uM incubated for 24 hrs by […] relative to control. It is filed as functional.
The subject of data set [3] is Enterococcus faecium. Description: Antibacterial activity against vancomycin-resistant Enterococcus faecium ATCC 51559 assessed as reduction in bacterial growth incubated for 24 hrs by CLSI based broth dilution method. It is filed as functional. Conditions: read-out: MIC100. For orientation: Dilution methods test growth across graded concentrations, often in twofold steps.

The test system of data set [4] is Staphylococcus aureus. In words: Antibacterial activity against methicillin-resistant Staphylococcus aureus CCARM 3095 assessed as reduction in bacterial growth incubated for 24 hrs by CLSI based broth dilution method. The class given is functional. Conditions: read-out: MIC100.
The test system of data set [5] is Staphylococcus aureus. Description: Antibacterial activity against Staphylococcus aureus KCTC 1621 assessed as reduction in bacterial growth incubated for 24 hrs by CLSI based broth dilution method. The class given is functional. Conditions: read-out: MIC100.
Data set [6] has as its system Bacteria. In words: Antibacterial activity against Gram negative bacteria assessed as reduction in bacterial growth incubated for 24 hrs by CLSI based broth dilution method. It is filed as functional. Conditions: read-out: MIC100.
Data set [7] can be described thus: Therapeutic index, ratio of HC10 for sheep RBC to geometric mean MIC for gram positive bacteria. The class given is toxicity. Conditions: sheep red blood cells, read-out: TI.
Data set [8] relates to Erythrocyte. Description: Hemolytic activity in sheep RBC assessed as reduction in hemoglobin at 256 uM incubated for 1 hr. The class given is ADME, cell-based, Ovis aries.
The subject of data set [9] is Candida albicans. In words: Antifungal activity against Candida albicans KCTC 7121 assessed as reduction in fungal growth incubated for 24 hrs by CLSI based broth dilution method. The class given is functional. Conditions: read-out: MIC100.
Data set [10] concerns RAW264.7. In words: Antiinflammatory activity against mouse RAW264.7 cells assessed as reduction in LPS-induced nitrite level at 5 uM incubated for 24 hrs by Griess reagent based assay relative to control. The class given is functional.
A short description of data set [11]: Cytotoxicity against mouse RAW264.7 cells assessed as reduction in cell viability at 20 uM incubated for 24 hrs by MTT assay. It is filed as cell-based. Conditions: read-out: INH. On the technique in general: Tetrazolium assays rely on reduction of a dye to a coloured formazan, in cell work by metabolically active cells.
Data set [12] has as its system Escherichia coli. In words: Antibacterial activity against Escherichia coli KCTC 1682 assessed as reduction in bacterial growth incubated for 24 hrs by CLSI based broth dilution method. It is filed as functional. Conditions: read-out: MIC100.
Data set [13] relates to Salmonella typhimurium. In words: Antibacterial activity against Salmonella typhimurium KCTC 1926 assessed as reduction in bacterial growth incubated for 24 hrs by CLSI based broth dilution method. The class given is functional, Salmonella enterica subsp. enterica serovar Typhimurium. Conditions: Salmonella enterica, read-out: MIC100.
Data set [14] is described as follows: Antibacterial activity against multidrug-resistant Pseudomonas aeruginosa CCARM 2095 assessed as reduction in bacterial growth incubated for 24 hrs by CLSI based broth dilution method. The class given is functional. Conditions: read-out: MIC100.
Data set [15] deals with Erythrocyte. Description: Hemolytic activity in sheep RBC assessed as reduction in hemoglobin incubated for 1 hr. The class given is ADME, cell-based, Ovis aries.
The subject of data set [16] is Bacillus subtilis. Description: Antibacterial activity against Bacillus subtilis KCTC 3068 assessed as reduction in bacterial growth incubated for 24 hrs by CLSI based broth dilution method. It is filed as functional. Conditions: read-out: MIC100.
The nature of data set [17]: Therapeutic index, ratio of HC10 for sheep RBC to geometric mean MIC for yeast. The class given is toxicity. Conditions: sheep red blood cells, read-out: TI.
The nature of data set [18]: Retention time of the compound by RP-HPLC method. The class given is physicochemical.
Data set [19] has as its system Candida albicans. In words: Antifungal activity against Candida albicans KCTC 7965 assessed as reduction in fungal growth incubated for 24 hrs by CLSI based broth dilution method. Conditions: read-out: MIC100. The class given is functional.
In data set [20] the test system is Saccharomyces cerevisiae. Description: Antifungal activity against yeast assessed as reduction in fungal growth incubated for 24 hrs by CLSI based broth dilution method. The class given is functional. Conditions: read-out: MIC100.
The test system of data set [21] is Staphylococcus aureus. In words: Antibacterial activity against methicillin-resistant Staphylococcus aureus CCARM 3089 assessed as reduction in bacterial growth incubated for 24 hrs by CLSI based broth dilution method. It is filed as functional. Conditions: read-out: MIC100.
Data set [22] in a line: Antibacterial activity against multidrug-resistant Pseudomonas aeruginosa CCARM 2109 assessed as reduction in bacterial growth incubated for 24 hrs by CLSI based broth dilution method. Conditions: read-out: MIC100. The class given is functional.
The nature of data set [23]: Cytotoxicity against mouse NIH/3T3 cells assessed as reduction in cell viability at 20 uM incubated for 24 hrs by MTT assay. The class given is cell-based, NIH3T3. Conditions: NIH/3T3 cells, read-out: INH.
The test system of data set [24] is Staphylococcus aureus. In words: Antibacterial activity against methicillin-resistant Staphylococcus aureus CCARM 3090 assessed as reduction in bacterial growth incubated for 24 hrs by CLSI based broth dilution method. It is filed as functional. Conditions: read-out: MIC100.
The subject of data set [25] is Pseudomonas aeruginosa. In words: Antibacterial activity against Pseudomonas aeruginosa KCTC 1637 assessed as reduction in bacterial growth incubated for 24 hrs by CLSI based broth dilution method. The class given is functional. Conditions: read-out: MIC100.
For data set [26], the system named is Bacteria. Description: Antibacterial activity against Gram positive bacteria assessed as reduction in bacterial growth incubated for 24 hrs by CLSI based broth dilution method. The class given is functional. Conditions: read-out: MIC100.
Data set [27] in a line: Therapeutic index, ratio of HC10 for sheep RBC to geometric mean MIC for gram negative bacteria. The class given is toxicity. Conditions: sheep red blood cells, read-out: TI.
Data set [28] has as its system Staphylococcus epidermidis. In words: Antibacterial activity against Staphylococcus epidermidis KCTC 1917 assessed as reduction in bacterial growth incubated for 24 hrs by CLSI based broth dilution method. The class given is functional. Conditions: read-out: MIC100.

Take `CCn1cc(C(=O)O)c(=O)c2ccc(C)nc21`: the result in [1] was inactive.
H-LAKKIYRAWKRR-NH2: the inhibition at 10 µM in data set [2] was below 10%. Further, the MIC came out at 16 µM in data set [3]; 16 µM in data set [4]; 4 µM in data set [5]; 16 µM in [6]; 8 µM in data set [9]; 8 µM in [12]. For the same compound, the MIC in data set [13] was 4 µM; in data set [14], 32 µM; in data set [16] it was 8 µM; in data set [19], 8 µM; in [20] it was 8 µM; in data set [21] it was 32 µM. Further, the MIC in data set [22] was 32 µM; in [24], 16 µM; in data set [25], 4 µM; in [26] it was 14.2 µM; in data set [28], 8 µM. Also, the selectivity ratio is 36.1 in [7], 64 in [17] and 32 in [27]. Also, the Activity entry in data set [8] is given as “Non-Toxic”. In addition, in [10], the inhibition at 5 µM is below 10%. Besides, the cytotoxicity at 24 h, 20 µM in [11] and in data set [23] was below 10% each time. Also, the HC10 in data set [15] was above 256 µM. In data set [18], this compound displayed a Retention_time of 14.1 min.
For the compound H-LAKKIYRAWKRW-NH2, the inhibition at 10 µM in [2] was below 10%. Further, the MIC in data set [3] is 16 µM; in [4], 16 µM; in data set [5], 4 µM; in [6], 14 µM; in data set [9], 8 µM; in [12], 16 µM. Besides, the MIC in [13] amounted to 2 µM; in [14], 16 µM; in data set [16] it was 4 µM; in data set [19], 8 µM; in data set [20], 8 µM; in [21] it was 32 µM. Besides, the MIC in data set [22] turned out to be 32 µM; in [24], 16 µM; in data set [25] it was 4 µM; in data set [26] it was 13.7 µM; in data set [28], 8 µM. Further, the values for the selectivity ratio in data set [7], in data set [17] and in data set [27] were 37.4, 64 and 36.6, respectively. The Activity result in [8] was “Non-Toxic”. Moreover, the inhibition at 5 µM in data set [10] was below 10%. Moreover, the cytotoxicity at 24 h, 20 µM in data set [11] and in [23] was below 10% throughout. Also, the HC10 in data set [15] was above 256 µM. Further, in data set [18], the Retention_time was 17.1 min.
Take H-LAKKIYRKWKRW-NH2: the inhibition at 10 µM in [2] was below 10%. For the same compound, the MIC stood at 8 µM in data set [3]; 16 µM in data set [4]; 4 µM in data set [5]; 7.6 µM in [6]; 8 µM in data set [9]; 8 µM in [12]. Besides, the MIC in data set [13] came to 2 µM; in data set [14], 16 µM; in data set [16], 4 µM; in data set [19], 8 µM; in data set [20], 8 µM; in data set [21], 16 µM. For the same compound, the MIC was found to be 8 µM in [22]; 16 µM in data set [24]; 4 µM in data set [25]; 9.7 µM in [26]; 4 µM in [28]. The selectivity ratio in [7] was 52.8; in data set [17], 64; in [27], 67.4. The Activity result in data set [8] is recorded as “Non-Toxic”. The inhibition at 5 µM in data set [10] is below 10%. Moreover, the cytotoxicity at 24 h, 20 µM in data set [11] and in data set [23] was below 10% each time. The HC10 in data set [15] is above 256 µM. The Retention_time in [18] came to 15.1 min.
For the compound H-QLVPLAIKIYRAWKRR-NH2, the MIC was 32 µM in [3]; 32 µM in [4]; 8 µM in [5]; 25.6 µM in data set [6]; 16 µM in [9]; 32 µM in data set [12]. The MIC in [13] came to 16 µM; in [14], 32 µM; in data set [16], 16 µM; in data set [19], 8 µM; in [20], 12 µM; in data set [21], 32 µM. Moreover, the MIC in data set [22] was 32 µM; in [24], 16 µM; in data set [25], 16 µM; in data set [26] it was 21.7 µM; in data set [28] it was 16 µM. The values for the selectivity ratio in data set [7], in data set [17] and in data set [27] were 8.3, 15 and 7, respectively. Besides, the Activity result in [8] is recorded as “Non-Toxic”. For the same compound, the values for the cytotoxicity at 24 h, 20 µM in data set [11] and in data set [23] were 35% and 50%, respectively. In data set [15], the HC10 was found to be 180 µM. The Retention_time in [18] stood at 24.1 min.
With H-VPLAIKIYRAWKRR-NH2, the MIC is 16 µM in data set [3]; 32 µM in data set [4]; 8 µM in data set [5]; 19.2 µM in data set [6]; 16 µM in [9]; 16 µM in data set [12]. Besides, the MIC in data set [13] stood at 8 µM; in data set [14], 32 µM; in [16], 4 µM; in data set [19], 16 µM; in [20] it was 16 µM; in data set [21], 32 µM. In addition, the MIC in [22] was found to be 32 µM; in data set [24], 32 µM; in data set [25], 8 µM; in data set [26], 20 µM; in data set [28] it was 16 µM. For the same compound, the selectivity ratio worked out at 25.6 in data set [7], 32 in data set [17] and 26.7 in data set [27]. Moreover, in data set [8], the Activity entry was “Non-Toxic”. Further, the cytotoxicity at 24 h, 20 µM in data set [11] and in [23] was below 10% throughout. Moreover, the HC10 in [15] is above 256 µM. Further, the Retention_time in data set [18] stood at 21.7 min.
